{
  "source": "patent US12447156B2",
  "about": "“Treating progressive familial intrahepatic cholestasis (PFIC) with IBAT inhibitors” (ALBIREO AB, priority 2020, dated 2025)",
  "test_system": "children with PFIC1 or PFIC2",
  "test": "PEDFIC 1: quality of life (PedsQL and PedsQL Family Impact Module)",
  "assay_type": "in vivo, human",
  "method": "Study design and eligibility was as follows. In PEDFIC 1, patients were randomized 1:1:1 to receive oral, once-daily placebo, odevixibat 40 μg/kg/day, or odevixibat 120 μg/kg/day for 24 weeks; patients who completed 24 weeks of treatment could enroll in an open-label extension. Patients between the ages of 6 months and 18 years with a diagnosis of PFIC1 or PFIC2 were eligible for the study if they had elevated serum bile acid levels (defined as ≥100 μmol/L averaged from 2 samples taken prior to randomization, ≥7 days apart) and significant pruritus as reported by caregivers (average score ≥2 on a scale of 0-4 in the 2 weeks prior to randomization using an observer-reported outcome instrument).\nA change from baseline to week 24 for the Pediatric QoL Inventory (PedsQL) questionnaire was assessed as an exploratory endpoint. Caregivers of patients ≥2 years old completed the PedsQL questionnaire, which assessed patient functioning in physical, emotional, social, and school domains; the output is a score between 0 and 100, where higher scores indicate better functioning and a higher change from baseline indicates an improvement in QoL, In addition, caregivers completed the PedsQL Family Impact Module, which assesses physical, emotional, social, and cognitive functioning as well as communication, worry, daily activities, and family relationship domains, also on a scale of 0 to 100. Total scores at baseline and at week 24 for all treatment groups as well as mean changes in scores from baseline to week 24 are presented for both odevixibat doses combined vs placebo; these are summarized descriptively.",
  "key": {"[1]": {"conditions": "PEDFIC 1, all doses, placebo 7.9"}, "[2]": {"conditions": "Week 24, 120 μg/kg/day (n = 15)"}},
  "data": [
    {"smiles": "CCCCC1(CCCC)CN(c2ccccc2)c2cc(SC)c(OCC(=O)N[C@@H](C(=O)N[C@@H](CC)C(=O)O)c3ccc(O)cc3)cc2S(=O)(=O)N1", "note": "[Odevixibat, 1,1-dioxo-3,3-dibutyl-5-phenyl-7-methylthio-8-(N-{(R)-α-[N-((S)-1-carboxypropyl)carbamoyl]-4-hydroxybenzyl}carbamoylmethoxy)-2,3,4,5-tetrahydro-1,2,5-benzothiadiazepine]", "values": [
      {"measurement": "PedsQL Family Impact Module Total score, mean change from baseline to week 24", "setting": "PEDFIC 1, all doses, placebo 5.6", "value": 14.5},
      {"measurement": "PedsQL Family Impact Module Emotional, mean change from baseline to week 24", "setting": "[1]", "value": 13.4},
      {"measurement": "PedsQL Family Impact Module Worry, mean change from baseline to week 24", "setting": "[1]", "value": 12.8},
      {"measurement": "PedsQL Family Impact Module Physical, mean change from baseline to week 24", "setting": "PEDFIC 1, all doses, placebo 8.1", "value": 18.9},
      {"measurement": "PedsQL Family Impact Module Social, mean change from baseline to week 24", "setting": "PEDFIC 1, all doses, placebo 8.5", "value": 13.5},
      {"measurement": "PedsQL Family Impact Module Daily activities, mean change from baseline to week 24", "setting": "PEDFIC 1, all doses, placebo 9.3", "value": 21.1},
      {"measurement": "PedsQL Emotional functioning, mean change from baseline to week 24", "setting": "PEDFIC 1, all doses, placebo 13.5", "value": 14.1},
      {"measurement": "PedsQL Social functioning, mean change from baseline to week 24", "setting": "PEDFIC 1, all doses, placebo −1.0", "value": 3.6},
      {"measurement": "PedsQL Family Impact Module Communication, mean change from baseline to week 24", "setting": "PEDFIC 1, all doses, placebo −4.4", "value": 8.3},
      {"measurement": "PedsQL school functioning, mean change from baseline to week 24", "setting": "PEDFIC 1, all doses, placebo −5.3", "value": 2.3},
      {"measurement": "PedsQL Physical functioning, mean change from baseline to week 24", "setting": "PEDFIC 1, all doses, placebo −5.9", "value": 7.8},
      {"measurement": "PedsQL Family Impact Module Cognitive functioning, Mean (SE)", "setting": "Week 24, 40 μg/kg/day (n = 19)", "value": "65.3 (4.9)"},
      {"measurement": "PedsQL Family Impact Module Communication, Mean (SE)", "setting": "Week 24, 40 μg/kg/day (n = 19)", "value": "57.0 (5.6)"},
      {"measurement": "PedsQL Family Impact Module Daily activities, Mean (SE)", "setting": "Week 24, 40 μg/kg/day (n = 19)", "value": "50.9 (6.1)"},
      {"measurement": "PedsQL Family Impact Module Emotional functioning, Mean (SE)", "setting": "Week 24, 40 μg/kg/day (n = 19)", "value": "55.8 (5.6)"},
      {"measurement": "PedsQL Family Impact Module Family relationships, Mean (SE)", "setting": "Week 24, 40 μg/kg/day (n = 19)", "value": "68.7 (5.9)"},
      {"measurement": "PedsQL Family Impact Module Physical functioning, Mean (SE)", "setting": "Week 24, 40 μg/kg/day (n = 19)", "value": "57.0 (5.7)"},
      {"measurement": "PedsQL Family Impact Module Social functioning, Mean (SE)", "setting": "Week 24, 40 μg/kg/day (n = 19)", "value": "61.8 (6.4)"},
      {"measurement": "PedsQL Family Impact Module Total score, Mean (SE)", "setting": "Week 24, 40 μg/kg/day (n = 19)", "value": "58.4 (4.7)"},
      {"measurement": "PedsQL Family Impact Module Worry, Mean (SE)", "setting": "Week 24, 40 μg/kg/day (n = 19)", "value": "47.9 (5.3)"},
      {"measurement": "PedsQL School functioning, Mean (SE)", "setting": "Week 24, 40 μg/kg/day, n 9", "value": "53.2 (5.2)"},
      {"measurement": "PedsQL Emotional functioning, Mean (SE)", "setting": "Week 24, 40 μg/kg/day, n 13", "value": "54.6 (4.7)"},
      {"measurement": "PedsQL Physical functioning, Mean (SE)", "setting": "Week 24, 40 μg/kg/day, n 13", "value": "56.3 (4.0)"},
      {"measurement": "PedsQL Social functioning, Mean (SE)", "setting": "Week 24, 40 μg/kg/day, n 13", "value": "63.1 (6.4)"},
      {"measurement": "PedsQL Total score, Mean (SE)", "setting": "Week 24, 40 μg/kg/day, n 13", "value": "56.8 (4.0)"},
      {"measurement": "PedsQL Family Impact Module Cognitive functioning, Mean (SE)", "setting": "[2]", "value": "67.7 (6.2)"},
      {"measurement": "PedsQL Family Impact Module Communication, Mean (SE)", "setting": "[2]", "value": "68.9 (5.6)"},
      {"measurement": "PedsQL Family Impact Module Daily activities, Mean (SE)", "setting": "[2]", "value": "54.4 (8.1)"},
      {"measurement": "PedsQL Family Impact Module Emotional functioning, Mean (SE)", "setting": "[2]", "value": "63.0 (5.9)"},
      {"measurement": "PedsQL Family Impact Module Family relationships, Mean (SE)", "setting": "[2]", "value": "72.7 (5.6)"},
      {"measurement": "PedsQL Family Impact Module Physical functioning, Mean (SE)", "setting": "[2]", "value": "63.3 (5.6)"},
      {"measurement": "PedsQL Family Impact Module Social functioning, Mean (SE)", "setting": "[2]", "value": "64.6 (7.6)"},
      {"measurement": "PedsQL Family Impact Module Total score, Mean (SE)", "setting": "[2]", "value": "63.5 (5.3)"},
      {"measurement": "PedsQL Family Impact Module Worry, Mean (SE)", "setting": "[2]", "value": "52.0 (5.8)"},
      {"measurement": "PedsQL School functioning, Mean (SE)", "setting": "Week 24, 120 μg/kg/day, n 10", "value": "63.3 (7.6)"},
      {"measurement": "PedsQL Emotional functioning, Mean (SE)", "setting": "Week 24, 120 μg/kg/day, n 11", "value": "59.6 (6.9)"},
      {"measurement": "PedsQL Physical functioning, Mean (SE)", "setting": "Week 24, 120 μg/kg/day, n 11", "value": "56.8 (8.7)"},
      {"measurement": "PedsQL Social functioning, Mean (SE)", "setting": "Week 24, 120 μg/kg/day, n 11", "value": "65.9 (8.6)"},
      {"measurement": "PedsQL Total score, Mean (SE)", "setting": "Week 24, 120 μg/kg/day, n 11", "value": "60.7 (7.0)"},
      {"measurement": "PedsQL Family Impact Module Cognitive functioning, Mean (SE)", "setting": "Week 24, All Doses (n = 34)", "value": "66.3 (3.8)"},
      {"measurement": "PedsQL Family Impact Module Communication, Mean (SE)", "setting": "Week 24, All Doses (n = 34)", "value": "62.3 (4.1)"},
      {"measurement": "PedsQL Family Impact Module Daily activities, Mean (SE)", "setting": "Week 24, All Doses (n = 34)", "value": "52.5 (4.9)"},
      {"measurement": "PedsQL Family Impact Module Emotional functioning, Mean (SE)", "setting": "Week 24, All Doses (n = 34)", "value": "59.0 (4.1)"},
      {"measurement": "PedsQL Family Impact Module Family relationships, Mean (SE)", "setting": "Week 24, All Doses (n = 34)", "value": "70.4 (4.1)"},
      {"measurement": "PedsQL Family Impact Module Physical functioning, Mean (SE)", "setting": "Week 24, All Doses (n = 34)", "value": "59.8 (4.0)"},
      {"measurement": "PedsQL Family Impact Module Social functioning, Mean (SE)", "setting": "Week 24, All Doses (n = 34)", "value": "63.1 (4.8)"},
      {"measurement": "PedsQL Family Impact Module Total score, Mean (SE)", "setting": "Week 24, All Doses (n = 34)", "value": "60.6 (3.5)"},
      {"measurement": "PedsQL Family Impact Module Worry, Mean (SE)", "setting": "Week 24, All Doses (n = 34)", "value": "49.7 (3.9)"},
      {"measurement": "PedsQL School functioning, Mean (SE)", "setting": "Week 24, All Doses, n 19", "value": "58.5 (4.7)"},
      {"measurement": "PedsQL Emotional functioning, Mean (SE)", "setting": "Week 24, All Doses, n 24", "value": "56.9 (4.0)"},
      {"measurement": "PedsQL Physical functioning, Mean (SE)", "setting": "Week 24, All Doses, n 24", "value": "56.5 (4.4)"},
      {"measurement": "PedsQL Social functioning, Mean (SE)", "setting": "Week 24, All Doses, n 24", "value": "64.4 (5.1)"},
      {"measurement": "PedsQL Total score, Mean (SE)", "setting": "Week 24, All Doses, n 24", "value": "58.6 (3.8)"}
    ]}
  ]
}
